# What was measured:
# [1] = Apparent stability constant of inclusion complexes; settings: in words, complexes with the new derivatives compared with the corresponding cyclomaltoheptaose (CG₇) complexes
# Solubility in water = settings: in words, compared with cyclomaltoheptaose (CG₇)
# physchem = settings: water
# [2] = Solubility of apolar solutes in aqueous cyclomalto-oligosaccharide solutions (inclusion complexes); format: physicochemical
SMILES,constantes de stabilité apparente des complexes [1],solubilité dans l'eau (Solubility in water),solubility (physchem),further results
C[C@]12CCC(=O)C=C1CC[C@@H]1[C@@H]2[C@@H](O)C[C@@]2(C)[C@H]1CC[C@]2(O)C(=O)CO [Hydrocortisone],ne sont pas notablement modifiées,–,–,–
"OC[C@H]1O[C@@H](SC[C@H]2O[C@@H]3O[C@H]4[C@H](O)[C@@H](O)[C@@H](O[C@H]5[C@H](O)[C@@H](O)[C@@H](O[C@H]6[C@H](O)[C@@H](O)[C@@H](O[C@H]7[C@H](O)[C@@H](O)[C@@H](O[C@H]8[C@H](O)[C@@H](O)[C@@H](O[C@H]9[C@H](O)[C@@H](O)[C@@H](O[C@H]2[C@H](O)[C@H]3O)O[C@@H]9CO)O[C@@H]8CO)O[C@@H]7CO)O[C@@H]6CO)O[C@@H]5CO)O[C@@H]4CO)[C@H](O)[C@@H](O)[C@@H]1O [Composé 2, 6-S-bêta-D-glucopyranosyl-6-thio-cyclomaltoheptaose]",–,très améliorée par rapport à celle du cyclomaltoheptaose,30 mg/mL,–
"Cc1cccc(N(C)C(=S)Oc2ccc3ccccc3c2)c1 [Tolnaftate, O-2-Naphtyl-méthyl-(3-méthylphényl)-carbomothioate]",–,–,0.012 mg/mL,"Solubilité ([2]; Solution aqueuse à 1,7.10^-2 mol/l de CG7): 840 µg/mL; Solubilité ([2]; Solution aqueuse à 3,10^-2mol/l de composé n°1): 52 690 µg/ml; Solubilité ([2]; Solution aqueuse à 3,10^-2 mol/l de composé n° 2): 37 090 µg/ml"
"OC[C@H]1O[C@H](SC[C@H]2O[C@@H]3O[C@H]4[C@H](O)[C@@H](O)[C@@H](O[C@H]5[C@H](O)[C@@H](O)[C@@H](O[C@H]6[C@H](O)[C@@H](O)[C@@H](O[C@H]7[C@H](O)[C@@H](O)[C@@H](O[C@H]8[C@H](O)[C@@H](O)[C@@H](O[C@H]9[C@H](O)[C@@H](O)[C@@H](O[C@H]2[C@H](O)[C@H]3O)O[C@@H]9CO)O[C@@H]8CO)O[C@@H]7CO)O[C@@H]6CO)O[C@@H]5CO)O[C@@H]4CO)[C@H](O)[C@@H](O)[C@@H]1O [Composé 1, 6-S-alpha-D-glucopyranosyl-6-thio-cyclomaltoheptaose]",–,améliorée par rapport à celle du CG₇,430 mg/mL,–
Oc1ccc2ccccc2c1 [2-naphtol],ne sont pas notablement modifiées,–,–,–

# Reference: patent publication EP0403366A2, “Cyclomalto-oligosaccharide derivatives and processes for their preparation” (priority 1989, dated 1990)
